Assay in all cases: NCI-60 cell line screen, 48 h
In assay [1] the test system is 786-0 renal.
Assay [2] relates to HL-60(TB) leukemia.
Assay [3] concerns HT29 colon.
Assay [4] concerns KM12 colon.
For assay [5], the system named is NCI-H226 lung.
The subject of assay [6] is NCI-H460 lung.
Assay [7] relates to OVCAR-3 ovarian.
The subject of assay [8] is OVCAR-4 ovarian.
Assay [9] concerns SF-539 CNS.
The test system of assay [10] is SN12C renal.
Assay [11] has as its system SNB-19 CNS.
Assay [12] has as its system SNB-75 CNS.
The test system of assay [13] is UACC-62 melanoma.
For assay [14], the system named is HOP-92 NSCLC.
The subject of assay [15] is SR leukemia.
The subject of assay [16] is SK-MEL-5 melanoma.

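Five compound concentrations were applied to cells in 96-well plates for 48 hours; endpoints were derived by simple linear interpolation of the resulting dose-response curve. At the TGI there is no net growth.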 Bounds are passed on as bounds.

Regarding `COC(=O)/C(=N\NC(N)=O)C(C#N)c1ccccc1` (stereo unspecified), the TGI in [1], in assay [2], in [3], in [4], in assay [5] and in [6] was over 100 µM each time. Also, the TGI in [7], in [8], in assay [9], in assay [10], in assay [11] and in assay [12] was over 100 µM each time. Also, the TGI in assay [13] was over 100 µM.

On to `Cc1cc2c(=O)c(C)n[nH]c2c(C#N)c1C`, for which the TGI in assay [1], in [2], in assay [14], in assay [3], in assay [5] and in [6] was over 100 µM each time. Also, the TGI in [7], in [9], in [10], in assay [11], in [12] and in assay [15] was over 100 µM in each case. Besides, the TGI in assay [13] is over 100 µM.

Consider `Cc1cccc(N=Cc2ccc(N(CCC#N)S(=O)(=O)c3ccccc3)cc2C)c1`, for which the TGI in [1], in assay [2], in assay [14], in assay [3], in [4] and in [5] was over 100 µM each time. The TGI in [7], in assay [8], in assay [9], in assay [16], in [10] and in assay [11] was over 100 µM each time. For the same compound, the TGI in assay [12] and in assay [13] was over 100 µM each time.

Take `Nc1ccn(CCOC(c2ccccc2)P(=O)(O)O)c(=O)n1` (stereo unspecified): the TGI in assay [1], in assay [2], in assay [3], in assay [4], in assay [5] and in assay [6] was over 100 µM each time. Further, the TGI in assay [7], in [9], in assay [16], in assay [10], in [11] and in assay [12] was over 100 µM throughout. Besides, the TGI in [15] and in assay [13] was over 100 µM throughout.

With `CO/N=C(/C(=O)Nc1c[n+](CC(=O)[O-])cs1)c1csc(N)n1`, the TGI in assay [1], in [2], in assay [14], in assay [3], in assay [4] and in assay [5] was over 100 µM in each case. Besides, the TGI in assay [6], in assay [7], in [9], in [16], in [10] and in assay [11] was over 100 µM throughout. The compound also gave a TGI in [13] of over 100 µM.

With `COc1ccc([Se][Se]c2ccc(OC)cc2OC)c(OC)c1`, the TGI is 7.78 µM in [1]; 5.89 µM in [2]; 4.46 µM in assay [14]; over 100 µM in assay [3]; 14.6 µM in assay [4]; 7.71 µM in assay [5]. For the same compound, the TGI was over 100 µM in assay [6]; 20 µM in assay [7]; 4.6 µM in assay [8]; 3.16 µM in [9]; 29.3 µM in [16]; 21 µM in assay [11]. Also, the TGI in assay [12] is 3.11 µM; in assay [13], 4.14 µM.

Regarding `O=c1c(C(c2ccc([N+](=O)[O-])cc2)c2c(O)c3ccccc3n(-c3ccccc3)c2=O)c(O)c2ccccc2n1-c1ccccc1`, the TGI in assay [1] was 26.9 µM; in assay [14] it was 29.3 µM; in assay [4], 82.5 µM; in assay [5] it was 74.8 µM; in assay [7], 70.5 µM; in assay [8], over 100 µM. Moreover, the TGI was 28 µM in assay [9]; 38 µM in [16]; over 100 µM in assay [10]; over 100 µM in assay [11]; 62.7 µM in assay [15]; 14.8 µM in assay [13].

Consider `CN1N=C2c3ccccc3OC(c3ccccc3)[C@H]2C1c1ccccc1` (stereo partly specified), for which the TGI in [1], in [2], in assay [14], in assay [3], in assay [4] and in assay [5] was over 100 µM in each case. In addition, the TGI in assay [6], in assay [7], in assay [8], in assay [9], in assay [10] and in assay [11] was over 100 µM each time. Moreover, the TGI in assay [15] and in [13] was over 100 µM throughout.

On to `CCc1ccc(Cc2ccc(CC)c(NC(=O)C(=O)C3NC(=S)NC3=O)c2CC)c(CC)c1NC(=O)C(=O)C1NC(=S)NC1=O` (stereo unspecified), for which the TGI in assay [1], in [2], in assay [14], in assay [4], in [6] and in assay [7] was over 100 µM throughout. In addition, the TGI in [8], in assay [9], in assay [16], in assay [11], in assay [12] and in assay [13] was over 100 µM each time.

Take `CNS(=O)(=O)NNS(=O)(=O)c1ccc(F)cc1`: the TGI in [1], in [2], in assay [3], in assay [4], in [5] and in [6] was over 100 µM each time. Also, the TGI in assay [7], in assay [8], in [9], in assay [16], in assay [11] and in [12] was over 100 µM throughout. Besides, the TGI in [15] and in assay [13] was over 100 µM in each case.

In the case of `COc1cccc(C=O)c1[O-].COc1cccc(C=O)c1[O-].[Zn+2]`, the TGI in assay [1] was over 100 µM; in [14], 83.6 µM; in [3], over 100 µM; in assay [4] it was over 100 µM; in assay [5] it was over 100 µM; in assay [6] it was over 100 µM. The TGI in assay [7] was 92.6 µM; in assay [8] it was over 100 µM; in [9], over 100 µM; in assay [16], over 100 µM; in assay [10] it was over 100 µM; in assay [11], over 100 µM. Moreover, the TGI in assay [12], in [15] and in [13] was over 100 µM throughout.

Take `CCCCCCCC(=O)OC[C@H](C[As](=O)(O)O)OC(=O)CCCCCCC`: the TGI turned out to be 26.7 µM in assay [1]; 22 µM in assay [2]; 31.1 µM in [14]; 25.2 µM in [3]; 17.6 µM in [5]; 29.1 µM in [8]. In addition, the TGI was found to be 18.2 µM in [9]; 26.8 µM in assay [16]; 21.7 µM in assay [10]; 27.3 µM in assay [11]; 32.3 µM in assay [12]; 22.8 µM in [15]. For the same compound, the TGI in assay [13] came to 21.3 µM.

As to `CCc1cccc(C(C)CC)c1NC(=O)C(=O)Cc1nc2ccccc2o1` (stereo unspecified), the TGI in assay [1], in [2], in [14], in assay [3], in assay [4] and in assay [5] was over 50 µM each time. Further, the TGI in [6], in [7], in [8], in [9], in [16] and in assay [10] was over 50 µM throughout. Also, the TGI in [11], in assay [12] and in assay [13] was over 50 µM throughout.

Regarding `CN/N=C(\C)C(CN1CCCCC1)C(C1=C(O)c2ccccc2OC1)c1ccccc1` (stereo unspecified), the TGI in assay [1], in assay [2], in [3], in [4], in assay [5] and in assay [6] was over 100 µM throughout. Besides, the TGI in [7], in assay [8], in [9], in assay [16], in assay [10] and in assay [11] was over 100 µM each time. Moreover, the TGI in [12], in [15] and in [13] was over 100 µM each time.

On to `CS(=O)(=O)NNS(=O)(=O)c1ccc(F)cc1`, for which the TGI in assay [1], in assay [2], in assay [3], in assay [4], in assay [5] and in assay [6] was over 100 µM in each case. The TGI in [7], in assay [8], in assay [9], in [16], in assay [10] and in [11] was over 100 µM each time. Further, the TGI in [12], in assay [15] and in [13] was over 100 µM each time.

As to `COC(=O)N/N=C(\C)CC(=O)Nc1cccc([N+](=O)[O-])c1`, the TGI in assay [1], in [2], in assay [14], in assay [3], in assay [4] and in [5] was over 100 µM each time. In addition, the TGI in assay [6], in [7], in assay [9], in [16], in [12] and in [13] was over 100 µM each time.

Take `N#Cc1ccc(OCCSCCCCCCCCCCSCCOc2ccc(C#N)cc2)cc1`: the TGI in assay [1], in assay [2], in [4], in [5], in assay [6] and in [7] was over 100 µM in each case. Moreover, the TGI in assay [9], in assay [16], in [10], in assay [12] and in assay [13] was over 100 µM in each case.

For `O=C(O[C@H]1[C@@H]2C=CO[C@@H](OC3OC(CO)C(O)C(O)C3O)[C@@H]2[C@@]2(CO)O[C@@H]12)c1ccc(O)c(O)c1` (stereo partly specified), the TGI in assay [1], in assay [2], in assay [14], in assay [3], in assay [4] and in assay [6] was over 100 µM in each case. The TGI in assay [7], in [8], in [9], in [16], in assay [10] and in assay [11] was over 100 µM each time. The TGI in assay [12] and in assay [13] was over 100 µM in each case.

Turning to `O=C(CC1(O)C(=O)Nc2ccc([N+](=O)[O-])cc21)c1ccncc1` (stereo unspecified), the TGI was over 100 µM in assay [1]; 56.5 µM in [2]; over 100 µM in assay [3]; over 100 µM in [4]; over 100 µM in assay [5]; over 100 µM in [6]. Moreover, the TGI was 65 µM in assay [7]; 40.9 µM in assay [8]; over 100 µM in assay [9]; over 100 µM in assay [10]; over 100 µM in [11]; 98.8 µM in [12]. Besides, the TGI in assay [13] was over 100 µM.

For the compound `CSc1ccc2c(cc1=O)C(NC(=O)c1ccccc1)CCc1cc(O)c(O)c(O)c1-2` (stereo unspecified), the TGI in assay [1] was over 100 µM; in assay [2] it was 38.2 µM; in assay [14] it was 38.5 µM; in assay [3], over 100 µM; in assay [4], 27.5 µM; in assay [5] it was 45.7 µM. The TGI in assay [6] worked out at 40.3 µM; in assay [7], 5.91 µM; in assay [8], 33.2 µM; in assay [9], 10.6 µM; in assay [16] it was 12.7 µM; in assay [10], 44.7 µM. Also, the values for the TGI in assay [11], in assay [12] and in assay [13] were 27.1 µM, 8.42 µM and 25.7 µM, respectively.
